A word on the ED50: it is the midpoint of the dose-response relation. The term Ki denotes the dissociation constant of the complex between target and ligand, obtained from inhibition or displacement. A word on the IC50: it is the concentration that inhibits the measured activity by half.

Where a name gives a salt, the structure may show the parent alone. Read-outs that look alike come from different tables or passages of the source.

The source of these data is patent US5521180A, “Morpholine derivative” (Yamanouchi Pharmaceutical Co., Ltd., priority 1993, dated 1996).

For one data set, the system named is 5-HT reuptake. Description: Enhancement of the action of L-5-hydroxytryptophan in mice (5-HT reuptake inhibition, in vivo). Further details: species or system Male ICR mice. Conditions: Mus musculus, ip, intraperitoneal, 30 minutes before 90 mg/kg i.v. L-5-hydroxytryptophan. The method, then:
Enhancement of the action of L-5-hydroxytryptophan which is a 5-HT precursor was tested [Naunyn-Schmiedeberg's Archives of Pharmacology, 311, 185-192 (1980)]. Male ICR mice weighing from 30 to 40 g were used. A test drug was intraperitoneally administered, and 30 minutes later 90 mg/kg of L-5-hydroxytryptophan was intravenously injected. […] The test drug was evaluated from the ED50 in manifestation of each action.

Another data set concerns the target T1, 5-HT2 receptors (Rattus norvegicus, UniProt P14842).
T1 construct: a rat cerebral cortex membrane preparation (about 0.2 mg-protein); from tissue; host or cells: rat cerebral cortex membrane preparation
Description: [3H]-Ketanserin binding, antagonism for 5-HT2 receptors (in vitro). The following applies: rat cerebral cortex membrane, about 1.0 nM [3H]-Ketanserin, 25° C., 30 minutes; read-out: Antagonism for 5-HT2 Receptor (Ki Value). The procedure: The degree of inhibition of a test compound on binding of [^3 H]-Ketanserin was tested. The method of Leysen JE, et al. described in Mol. Pharmacol., 21, 301 (1982) was used. A buffer solution (0.5 ml in total) containing about 1.0 nM of [^3 H]-Ketanserin, a rat cerebral cortex membrane preparation (about 0.2 mg-protein), and a test compound was allowed to react at 25° C. for 30 minutes. Thereafter, the bound labeled ligand was separated by suction filtration. The amount of the ligand nonspecifically bound to the 5-HT2 receptors, which was obtained by adding excess non-labeled Metergoline (10 μM), was subtracted from the total amount of the bound ligand to obtain the amount of the ligand specifically bound to 5-HT2 receptors. The IC50 (the concentration at which the amount of the specifically bound ligand is reduced by 50%) for each compound was calculated and converted to a dissociation constant (Ki value).

The next data set concerns the target T2, 5-HT reuptake sites (Rattus norvegicus, UniProt P31652).
T2 construct: a rat cerebral cortex membrane preparation (about 0.4 mg-protein); from tissue; host or cells: rat cerebral cortex membrane preparation
Description: [3H]-Citalopram binding to 5-HT reuptake sites (5-HT reuptake inhibition, in vitro). The following applies: rat cerebral cortex membrane, about 1.0 nM [3H]-Citalopram, 25° C., 60 minutes. The procedure: The 5-HT reuptake inhibitory activity was tested by examining the degree of inhibition of a test compound on binding of [^3 H]-Citalopram to 5-HT reuptake sites.
The method of D'amato RJ, et al. described in J. Pharmacol. Exp. Ther., 242, 364 (1987) was used. A buffer solution (0.5 ml) containing about 1.0 nM of [^3 H]-Citalopram, a rat cerebral cortex membrane preparation (about 0.4 mg-protein), and a test compound was allowed to react at 25° C. for 60 minutes. Thereafter, the labeled ligand of bound form was separated form the labeled ligand of free form by suction filtration. The amount of the ligand nonspecifically bound to the 5-HT reuptake sites, which was obtained by adding excess non-labeled Fluoxetine (10 μM), was subtracted from the total amount of the bound ligand to obtain the amount of the ligand specifically bound to the 5-HT reuptake sites. The IC50 (the concentration which reduces the amount of the specifically bound ligand by 50%) for each compound was calculated and converted to a dissociation constant (Ki value). in vivo Test: […]

In a further data set the test system is [3H]-5-HT uptake. Description: [3H]-5-HT uptake into cerebral cortex synaptosomes. Format: biochemical, Wistar male rat. The following applies: rat cerebral cortex synaptosomes, 10^-7 M ligand, 37° C.; read-out: IC50 in inhibition of [3H]-5-HT uptake. The method, then: (§1) The degree of inhibition of a test compound on uptake of [^3 H]-5-HT, [^3 H]-noradrenaline and [^3 H]-dopamine into synaptosomes was examined. The method of Harada and Maeno described in Biochem. Pharmacol., 28, 2645 (1979) was used. A Wistar male rat was decapitated and the cerebral cortex and the corpus striatum were taken out. The synaptosome fraction of the cerebral cortex was prepared for 5-HT and noradrenaline uptake and that of the corpus striatum was prepared for dopamine uptake. Each synaptosome fraction was incubated at 37° C. for 3 minutes, and [^3 H]-5-HT, [^3 H]-noradrenaline and [^3 H]-dopamine (10^-7 M) was added to the respective fraction. After further incubation for 2 minutes, the system was cooled with ice (0° C.) to stop the reaction. Then, the reaction system was filtered through a Whatman CF/B glass filter, and the radioactivity trapped on the filter was measured with a liquid scintillation counter. The nonspecific activity was obtained by using a reaction system containing no test drug and having been incubated at 0° C. The test drug was evaluated from the IC50 (the concentration at which the uptake of each radioactive ligand reduced by 50%).

The test system of another data set is [3H]-dopamine uptake. Description: [3H]-dopamine uptake into corpus striatum synaptosomes. Format: biochemical, Wistar male rat. The procedure:
as §1

Data set [1] deals with [3H]-noradrenaline uptake. Description: [3H]-noradrenaline uptake into cerebral cortex synaptosomes. Format: biochemical, Wistar male rat. The method, then: as §1
The conditions of data set [2]: clinical use, Physician's Desk Reference 1990; cited from earlier work.
Another data set deals with α1 receptors. The following applies: background; causes side effects based thereon; cited from earlier work.
[3] abbreviates: selectivity, about 30 or more times.

T2 sequence (P31652 whole entry): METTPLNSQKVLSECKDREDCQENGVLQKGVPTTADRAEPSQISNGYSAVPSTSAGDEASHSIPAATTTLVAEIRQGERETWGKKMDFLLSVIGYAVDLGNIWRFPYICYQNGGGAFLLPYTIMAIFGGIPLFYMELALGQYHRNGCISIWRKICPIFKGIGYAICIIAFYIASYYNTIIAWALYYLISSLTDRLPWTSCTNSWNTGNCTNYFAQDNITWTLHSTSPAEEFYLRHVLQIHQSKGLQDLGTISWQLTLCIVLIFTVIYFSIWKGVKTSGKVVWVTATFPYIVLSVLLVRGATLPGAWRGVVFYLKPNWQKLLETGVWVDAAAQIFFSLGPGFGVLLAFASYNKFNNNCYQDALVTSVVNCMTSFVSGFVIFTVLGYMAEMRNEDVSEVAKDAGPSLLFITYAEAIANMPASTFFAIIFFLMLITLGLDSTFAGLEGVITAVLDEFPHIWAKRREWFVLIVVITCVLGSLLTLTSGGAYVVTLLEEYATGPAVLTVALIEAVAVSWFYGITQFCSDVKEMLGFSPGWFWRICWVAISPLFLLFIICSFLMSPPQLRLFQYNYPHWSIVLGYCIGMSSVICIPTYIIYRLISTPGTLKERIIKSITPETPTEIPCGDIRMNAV
T1 sequence (P14842 whole entry): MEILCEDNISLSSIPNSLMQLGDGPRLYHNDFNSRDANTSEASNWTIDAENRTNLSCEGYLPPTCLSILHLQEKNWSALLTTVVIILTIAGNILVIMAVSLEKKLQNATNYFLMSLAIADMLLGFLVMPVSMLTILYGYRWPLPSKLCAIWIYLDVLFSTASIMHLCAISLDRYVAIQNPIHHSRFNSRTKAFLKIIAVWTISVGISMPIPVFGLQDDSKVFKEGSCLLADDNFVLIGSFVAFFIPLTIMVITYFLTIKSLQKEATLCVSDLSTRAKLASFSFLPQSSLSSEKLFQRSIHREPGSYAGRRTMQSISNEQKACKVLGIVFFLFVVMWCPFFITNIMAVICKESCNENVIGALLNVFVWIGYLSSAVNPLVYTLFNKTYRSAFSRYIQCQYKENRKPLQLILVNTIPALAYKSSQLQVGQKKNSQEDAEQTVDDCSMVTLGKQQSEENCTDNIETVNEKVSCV

As for `Fc1ccc(OCC2CNCCO2)c2c1CCC2.O=C(O)/C=C/C(=O)O` (single isomer, unassigned; (-)) [Example 4, (-)-2-[[(7-fluoro-4-indanyl)oxy]methyl]morpholine fumarate], the ED50 with 5-HT reuptake (read-out: ED50 in manifestation of head shaking behavior) amounted to 7.2 mg/kg; in the data set with 5-HT reuptake (read-out: ED50 in manifestation of hind leg abduction), 14.1 mg/kg; in the data set on 5-HT reuptake (read-out: ED50 in manifestation of tremor), 6.3 mg/kg. Besides, the Ki at 5-HT2 receptors is 100 nM; at 5-HT reuptake sites it was 21 nM.

Turning to `Fc1ccc(OCC2CNCCO2)c2c1CCC2` (single isomer, unassigned; (-)) [Example 5, (-)-2-[[(7-fluoro-4-indanyl)oxy]methyl]morpholine hydrochloride], the results for the Ki on 5-HT2 receptors and on 5-HT reuptake sites were 100 nM and 21 nM, respectively.

In the case of `Fc1ccc(OCC2CNCCO2)c2c1CCC2` (stereo not drawn) [Example 1, 2-[[(7-fluoro-4-indanyl)oxy]methyl]morpholine], the 50% inhibitory concentration (IC50) is 227 nM in data set [3H]-5-HT uptake; not below 10 µM in data set [3H]-dopamine uptake (rat corpus striatum synaptosomes, 10^-7 M ligand, 37° C., read-out: IC50 in inhibition of [3H]-dopamine uptake); 6.72 µM in data set [1] (rat cerebral cortex synaptosomes, 10^-7 M ligand, 37° C., read-out: IC50 in inhibition of [3H]-noradrenaline uptake). Moreover, the “[3H]-5-HT uptake inhibitory activity relative to [3H]-dopamine uptake inhibitory activity” value in data set [3H]-dopamine uptake (setting [3]) is on record as not below 30 times. In addition, the “[3H]-5-HT uptake inhibitory activity relative to [3H]-noradrenaline uptake inhibitory activity” value in data set [1] (setting [3]) is given as not below 30 times.

For `CNCCC(Oc1ccc(C(F)(F)F)cc1)c1ccccc1` (stereo not drawn) [Fluoxetine], the “side effects during the course of therapy” value in data set [2] was “induces anxiety or insomnia”.

Regarding `O=c1n(CCCN2CCN(c3cccc(Cl)c3)CC2)nc2ccccn12` [Trazodone], in the data set with α1 receptors, the “affinity to α1 receptors (in words)” value is “exhibits affinity to α1receptors”.

With `c1cc2c(c(OCC3CNCCO3)c1)CCC2` (stereo not drawn) [compound 1, 2-[[(4-Indanyl)oxy]methyl]morpholine, reference compound], the Ki turned out to be 1030 nM at 5-HT2 receptors and 52 nM on 5-HT reuptake sites.

Take `C1=Cc2cccc(OCC3CNCCO3)c2C1` (stereo not drawn) [compound 2, 2-[[(7-Indenyl)oxy]methyl]morpholine, reference compound]: the Ki stood at 4670 nM on 5-HT2 receptors and 22 nM at 5-HT reuptake sites.
